Measured values published in patent US20250144067A1, “PERSONALIZED STARVATION THERAPY FOR CANCER” (Faeth Therapeutics, Inc., priority 2021, published 2025).
Counter-ions that a name gives are not always drawn.

Legend:
[1] = system: NCI-H292 lung cancer cells; assay: FDA drug screening, complete media vs cholesterol-free media with simvastatin (TABLE 2); format: cell-based, human; details: for Cholesterol-free media + simvastatin (0.04 μM) / Complete Media: NCI-H292 cells; for Difference: >0 enhanced anti-cancer activity, about 0 neutral, <0 antagonist
[2] = system: NCI-H292 lung cancer cells; assay: FDA drug screening, complete media vs cholesterol-free media without statin (TABLE 1); format: cell-based, human; details: for Difference: about 0 neutral
[3] = FDA drug library screen, cholesterol-free media with simvastatin 0.04 μM
[4] = FDA drug library screen, complete media
[5] = complete media vs cholesterol-free media + simvastatin (0.04 μM)
[6] = Complete minus Cholesterol-free, >0 enhanced anti-cancer activity, <0 antagonist
[7] = NCI-H292 cells, cholesterol-free media without statin
[8] = NCI-H292 cells, cholesterol-free media without statin, FDA drug library screen
[9] = NCI-H292 cells, complete media, FDA drug library screen
[10] = complete vs cholesterol-free media, >0 enhanced anti-cancer activity, <0 antagonist
[11] = drug in cholesterol-free media with simvastatin 0.04 μM
[12] = complete media minus cholesterol-free media + simvastatin
[13] = Complete minus Cholesterol-free, greater than 0 enhanced anti-cancer activity, below 0 antagonists
[14] = NCI-H292 cells in cholesterol-free media without statin
[15] = NCI-H292 cells in complete media
[16] = cholesterol-free media with simvastatin 0.04 μM, cell growth value in FDA drug screen
[17] = complete media, cell growth value in FDA drug screen
[18] = complete vs cholesterol-free media, greater than 0 enhanced anti-cancer activity, below 0 antagonists
[19] = FDA library drug in cholesterol-free media with simvastatin 0.04 μM
[20] = FDA library drug in complete media
[21] = Complete minus Cholesterol-free, greater than 0 enhanced anti-cancer activity, below 0 antagonist
[22] = NCI-H292 cells, FDA drug library screen, cholesterol-free media without statin
[23] = NCI-H292 cells, FDA drug library screen, complete media

CO/N=C(\C(=O)N[C@@H]1C(=O)N2C(C(=O)O)=C(CSc3nnnn3C)CS[C@H]12)c1csc(N)n1 [Cefmenoxime (hydrochloride)]
Cholesterol-free media + simvastatin (0.04 μM) [1, 3]: 0.8027
Complete Media [1, 4]: 0.7093
Difference [1, 5]: −0.09
Difference [2, 6]: −0.30
Cholesterol-free [2, 7]: 1.225
Complete ([2]; NCI-H292 cells, complete media): 0.93

CO[C@@]1(NC(=O)CSCC#N)C(=O)N2C(C(=O)O)=C(CSc3nnnn3C)CS[C@@H]21 [Cefmetazole (sodium)]
Cholesterol-free media + simvastatin (0.04 μM) [1, 3]: 1.32
Complete Media [1, 4]: 1.164
Difference [1, 5]: −0.16
Cholesterol-free [2, 8]: 0.6502
Complete [2, 9]: 0.9897
Difference [2, 10]: 0.34

CO/N=C(\C(=O)N[C@@H]1C(=O)N2C(C(=O)[O-])=C(CSc3nc(C)c(CC(=O)[O-])s3)CS[C@H]12)c1csc(N)n1.[Na+].[Na+] [Cefodizime (sodium)]
Cholesterol-free media + simvastatin (0.04 μM) [1, 11]: 1.29
Complete Media ([1]; drug in complete media): 1.088
Difference [1, 5]: −0.20
Difference [2, 6]: 0.06
Cholesterol-free [2, 8]: 1.009
Complete [2, 9]: 1.069

CO/N=C(\C(=O)N[C@@H]1C(=O)N2C(C(=O)O)=C(CSc3nc(C)c(CC(=O)O)s3)CS[C@H]12)c1csc(N)n1 [Cefodizime]
Cholesterol-free media + simvastatin (0.04 μM) [1, 11]: 1.707
Complete Media ([1]; drug in complete media): 1.539
Difference [1, 5]: −0.17
Difference [2, 6]: −0.06
Cholesterol-free [2, 8]: 0.9888
Complete [2, 9]: 0.9297

O=C(O)C1=C(CSc2nnnn2CS(=O)(=O)O)CS[C@@H]2[C@H](NC(=O)[C@H](O)c3ccccc3)C(=O)N12 [Cefonicid (sodium)]
Cholesterol-free media + simvastatin (0.04 μM) [1, 3]: 1.25
Complete Media [1, 4]: 1.107
Difference [1, 5]: −0.14
Difference [2, 6]: 0.00
Cholesterol-free [2, 8]: 0.833
Complete [2, 9]: 0.8286

CCN1CCN(C(=O)N[C@@H](C(=O)N[C@@H]2C(=O)N3C(C(=O)O)=C(CSc4nnnn4C)CS[C@H]23)c2ccc(O)cc2)C(=O)C1=O [Cefoperazone (sodium salt)]
Cholesterol-free media + simvastatin (0.04 μM) [1, 11]: 1.213
Complete Media ([1]; drug in complete media): 0.9749
Difference [1, 5]: −0.24
Cholesterol-free [2, 8]: 1.002
Difference [2, 10]: 0.17

CCN1CCN(C(=O)N[C@@H](C(=O)N[C@@H]2C(=O)N3C(C(=O)O)=C(CSc4nnnn4C)CS[C@H]23)c2ccc(O)cc2)C(=O)C1=O [Cefoperazone]
Cholesterol-free media + simvastatin (0.04 μM) [1, 3]: 1.061
Complete Media [1, 4]: 1.748
Difference [1, 12]: 0.69
Cholesterol-free [2, 8]: 0.8233
Complete [2, 9]: 1.132
Difference [2, 10]: 0.31

NCc1ccccc1CC(=O)N[C@@H]1C(=O)N2C(C(=O)O)=C(CSc3nnnn3CC(=O)O)CS[C@H]12 [Ceforanide]
Cholesterol-free media + simvastatin (0.04 μM) [1, 3]: 1.034
Complete Media [1, 4]: 1.331
Difference [1, 12]: 0.30
Difference [2, 13]: −0.76
Cholesterol-free [2, 14]: 1.736
Complete [2, 15]: 0.9794

CO/N=C(\C(=O)N[C@@H]1C(=O)N2C(C(=O)O)=C(Cn3ccc(=N)n3CCO)CS[C@H]12)c1csc(N)n1.O=S(=O)(O)O [Cefoselis (sulfate)]
Cholesterol-free media + simvastatin (0.04 μM) [1, 16]: 1.07
Complete Media [1, 17]: 1.107
Difference [1, 12]: 0.04
Cholesterol-free [2, 8]: 0.955
Complete [2, 9]: 1.116
Difference [2, 10]: 0.16

CO/N=C(\C(=O)N[C@@H]1C(=O)N2C(C(=O)O)=C(COC(C)=O)CS[C@H]12)c1csc(N)n1 [Cefotaxime (sodium salt)]
Cholesterol-free media + simvastatin (0.04 μM) [1, 3]: 1.284
Complete Media [1, 4]: 1.139
Difference [1, 5]: −0.15
Cholesterol-free [2, 7]: 1.268
Complete ([2]; NCI-H292 cells, complete media): 0.9622
Difference [2, 18]: −0.31

CO/N=C(\C(=O)N[C@@H]1C(=O)N2C(C(=O)O)=C(COC(C)=O)CS[C@H]12)c1csc(N)n1 [Cefotaxime]
Cholesterol-free media + simvastatin (0.04 μM) [1, 3]: 0.9945
Complete Media [1, 4]: 0.8998
Difference [1, 5]: −0.09
Difference [2, 13]: −0.57
Cholesterol-free [2, 14]: 1.225
Complete [2, 15]: 0.66

CO[C@@]1(NC(=O)C2SC(=C(C(N)=O)C(=O)O)S2)C(=O)N2C(C(=O)O)=C(CSc3nnnn3C)CS[C@@H]21 (stereo partly shown) [Cefotetan]
Cholesterol-free media + simvastatin (0.04 μM) [1, 11]: 1.2
Complete Media ([1]; drug in complete media): 1.027
Difference [1, 5]: −0.17
Difference [2, 6]: −0.26
Cholesterol-free [2, 7]: 1.196
Complete ([2]; NCI-H292 cells, complete media): 0.9309

CO[C@@]1(NC(=O)Cc2cccs2)C(=O)N2C(C(=O)O)=C(COC(N)=O)CS[C@@H]21 [Cefoxitin (sodium)]
Cholesterol-free media + simvastatin (0.04 μM) ([1]; cholesterol-free media with simvastatin 0.04 μM, FDA drug library screen (TABLE 2)): 0.9202
Complete Media ([1]; complete media, FDA drug library screen (TABLE 2)): 0.8818
Difference ([1]; complete media minus cholesterol-free media + simvastatin (0.04 μM)): −0.04
Difference [2, 13]: −0.48
Cholesterol-free [2, 14]: 1.299
Complete [2, 15]: 0.8161

CO[C@@]1(NC(=O)Cc2cccs2)C(=O)N2C(C(=O)O)=C(COC(N)=O)CS[C@@H]21 [Cefoxitin]
Cholesterol-free media + simvastatin (0.04 μM) [1, 19]: 1.841
Complete Media [1, 20]: 1.5
Difference [1, 5]: −0.34
Difference [2, 21]: −0.13
Cholesterol-free [2, 22]: 0.8861
Complete [2, 23]: 0.755

CO/N=C(\C(=O)N[C@@H]1C(=O)N2C(C(=O)[O-])=C(C[n+]3ccn4ncccc43)CS[C@H]12)c1nsc(N)n1 [Cefozopran (hydrochloride)]
Cholesterol-free media + simvastatin (0.04 μM) [1, 19]: 1.89
Complete Media [1, 20]: 1.537
Difference [1, 5]: −0.35
Difference [2, 6]: −0.04
Cholesterol-free [2, 8]: 1.014
Complete [2, 9]: 0.9759

COCC1=C(C(=O)OC(C)OC(=O)OC(C)C)N2C(=O)[C@@H](NC(=O)/C(=N\OC)c3csc(N)n3)[C@H]2SC1 (stereo partly shown) [Cefpodoxime Proxetil]
Cholesterol-free media + simvastatin (0.04 μM) [1, 16]: 1.112
Complete Media [1, 17]: 1.162
Difference [1, 12]: 0.05
Cholesterol-free [2, 8]: 1.085
Complete [2, 9]: 1.311
Difference [2, 10]: 0.23

C/C=C/C1=C(C(=O)O)N2C(=O)[C@@H](NC(=O)[C@H](N)c3ccc(O)cc3)[C@H]2SC1.O [Cefprozil (monohydrate)]
Cholesterol-free media + simvastatin (0.04 μM) [1, 3]: 0.9773
Complete Media [1, 4]: 1.216
Difference [1, 12]: 0.24
Cholesterol-free [2, 7]: 1.442
Complete ([2]; NCI-H292 cells, complete media): 1.109
Difference [2, 18]: −0.33

NC(=O)c1cc[n+](CC2=C(C(=O)O)N3C(=O)[C@@H](NC(=O)[C@@H](c4ccccc4)S(=O)(=O)[O-])[C@H]3SC2)cc1 [Cefsulodin (sodium)]
Cholesterol-free media + simvastatin (0.04 μM) [1, 3]: 1.191
Complete Media [1, 4]: 1.113
Difference [1, 5]: −0.08
Cholesterol-free [2, 7]: 1.045
Complete ([2]; NCI-H292 cells, complete media): 0.6569
Difference [2, 18]: −0.39

CCO/N=C(\C(=O)N[C@@H]1C(=O)N2C(C(=O)[O-])=C(Sc3nc(-c4cc[n+](C)cc4)cs3)CS[C@H]12)c1nsc(NP(=O)(O)O)n1 [Ceftaroline fosamil]
Cholesterol-free media + simvastatin (0.04 μM) [1, 3]: 1.027
Complete Media [1, 4]: 0.9313
Difference [1, 5]: −0.10
Difference [2, 13]: −0.71
Cholesterol-free [2, 14]: 1.53
Complete [2, 15]: 0.8244

CC(C)(O/N=C(\C(=O)N[C@@H]1C(=O)N2C(C(=O)[O-])=C(C[n+]3ccccc3)CS[C@H]12)c1csc(N)n1)C(=O)O [Ceftazidime]
Cholesterol-free media + simvastatin (0.04 μM) [1, 11]: 1.391
Difference [1, 5]: −0.24
Difference [2, 6]: −0.05
Cholesterol-free [2, 8]: 0.9478
Complete [2, 9]: 0.8943

O=C(Cn1cnnn1)N[C@@H]1C(=O)N2C(C(=O)O)=C(CSc3nncs3)CS[C@H]12 [Ceftezole (sodium)]
Cholesterol-free media + simvastatin (0.04 μM) [1, 16]: 1.052
Complete Media [1, 17]: 1.1
Difference [1, 12]: 0.05
Difference [2, 21]: −0.11
Cholesterol-free [2, 22]: 1.089
Complete [2, 23]: 0.9806

Nc1nc(/C(=C/CC(=O)O)C(=O)N[C@@H]2C(=O)N3C(C(=O)O)=CCS[C@H]23)cs1 [Ceftibuten (dihydrate)]
Cholesterol-free media + simvastatin (0.04 μM) [1, 3]: 1.353
Complete Media [1, 4]: 1.195
Difference [1, 5]: −0.16
Cholesterol-free [2, 8]: 0.6461
Complete [2, 9]: 1.242
Difference [2, 10]: 0.60

CO/N=C(\C(=O)N[C@@H]1C(=O)N2C(C(=O)O)=CCS[C@H]12)c1csc(N)n1 [Ceftizoxime]
Cholesterol-free media + simvastatin (0.04 μM) [1, 11]: 1.55
Complete Media ([1]; drug in complete media): 1.371
Difference [1, 5]: −0.18
Difference [2, 6]: 0.03
Cholesterol-free [2, 8]: 1.031
Complete [2, 9]: 1.057

CO/N=C(\C(=O)N[C@@H]1C(=O)N2C(C(=O)[O-])=C(COC(N)=O)CS[C@H]12)c1ccco1.[Na+] [Cefuroxime (sodium)]
Cholesterol-free media + simvastatin (0.04 μM) [1, 3]: 1.129
Complete Media [1, 4]: 1.035
Difference [1, 5]: −0.09
Difference [2, 6]: −0.19
Cholesterol-free [2, 7]: 1.146
Complete ([2]; NCI-H292 cells, complete media): 0.9534

CO/N=C(\C(=O)N[C@@H]1C(=O)N2C(C(=O)OC(C)OC(C)=O)=C(COC(N)=O)CS[C@H]12)c1ccco1 (stereo partly shown) [Cefuroxime axetil]
Cholesterol-free media + simvastatin (0.04 μM) [1, 16]: 1.05
Complete Media [1, 17]: 1.073
Difference [1, 12]: 0.02
Difference [2, 21]: −0.18
Cholesterol-free [2, 22]: 0.8605
Complete [2, 23]: 0.6767
